According to patent EP4722219A1 (Gan & Lee Pharmaceuticals Co., Ltd., priority 2023, dated 2024):

How the values were obtained:
[1] = test system: T-47D cells; assay: Inhibition of cell proliferation in T-47D cells (CCK-8); type: cell-based; details: 6 days treatment, CCK-8 cell viability
Description: Test Example 2 Inhibitory effect of PROTAC compounds provided by the present invention on cell proliferation in T-47D cells
The complete culture medium required for T-47D cells is 1640 (ATCC, Product number: A10491-01) basal culture medium containing 10% fetal bovine serum. T-47D cells were seeded in 96-well plates at a density of 3,000 cells/well, and different concentrations of PROTAC compounds 1-55 provided in the examples of the present invention and positive control sample ARV-471 (source: Inokai) were prepared to treat the cells and incubated at 37 °C, 5% CO2 cell culture incubator for 6 days. According to the manufacturer's instructions, cell viability was detected using a CCK-8 kit (Beyotime, Product number: C0040). The IC50 of each compound after treating for 6 days was calculated using GraphPadPrism software based on the inhibition rate. Table 2 Inhibition IC50 value of T-47D cell proliferation by PROTAC compounds provided by the present invention and positive control sample

[2] = test system: MCF-7 cells; assay: Inhibition of cell proliferation in MCF-7 cells (CCK-8); type: cell-based; details: MCF-7 cell proliferation, 6 days treatment
Description: Test Example 3 Inhibitory effect of PROTAC compounds provided by the present invention on cell proliferation in MCF-7 cells
The complete culture medium required for MCF-7 cells (source ATCC) is DMEM (gibco, Product number: 11995-065) basal culture medium containing 10% fetal bovine serum. MCF-7 cells were seeded in 96-well plates at a density of 800 cells/well, and different concentrations of PROTAC compounds 1-55 provided in the examples of the present invention and positive control sample ARV-471 (source: Inokai) were prepared to treat the cells and incubated at 37 °C, 5% CO2 cell culture incubator for 6 days. According to the manufacturer's instructions, cell viability was detected using a CCK-8 kit (Beyotime, Product number: C0040). The IC50 of each PROTAC compound after treating for 6 days was calculated using GraphPadPrism software based on the inhibition rate. Table 3 Inhibition IC50 value of MCF-7 cell proliferation by PROTAC compounds of the present invention and positive control sample

Row | Compound | IC50 ([1]; Homo sapiens, T47D, 144 h) [nM] | IC50 ([2]; Homo sapiens, MCF7, 144 h) [nM] | IC50 [1] [nM] | IC50 [2] [nM]
1 | CN(CC(=O)N1CCC2(CC1)CCC1(CC2)COc2c1ccc1c2CN(C2CCC(=O)NC2=O)C1=O)C1CCC2(CC1)CN(c1ccc([C@@H]3c4ccc(O)cc4CC[C@@H]3c3ccccc3)cc1)C2 (stereo partly drawn) [ER-P-71, 3-(1"-(N-(2-(4-((1R,2S)-6-hydroxy-2-phenyl-1,2,3,4-tetrahydronaphthalen-1-yl)phenyl)-2-azaspiro[3.5]nonan-7-yl)-N-methylglycyl)-6-oxo-6,8-dihydro-2H,7H-dipyridole[furo[2,3-e]isoindole-3,1'-cyclohexane-4',4"-piperidin]-7-yl)piperidine-2,6-dione] | 8.54 | 2020 | – | –
2 | COc1cc2c(cc1C(=O)N[C@H]1CCC(=O)NC1=O)OCC21CCN(CC2CCC(OC3CCN(c4ccc([C@@H]5c6ccc(O)cc6CC[C@@H]5c5ccccc5)cc4)CC3)CC2)CC1 (stereo partly drawn) [ER-P-84, N-((S)-2,6-dioxopiperidin-3-yl)-1'-(((1S,4R)-4-((1-(4-((1R,2S)-6-hydroxy-2-phenyl-1,2,3,4-tetrahydronaphthalen-1-yl)phenyl)piperidin-4-yl)oxy)cyclohexyl)methyl)-5-methoxy-2H-spiro[benzofuran-3,4'-piperidine]-6-carboxamide] | – | – | 17.7 | 8330
3 | COc1cc2c(cc1C(=O)NC1CCC(=O)NC1=O)C1(CCN(CC3CCC(OC4CCN(c5ccc(C6c7ccc(O)cc7CCC6c6ccccc6)cc5)CC4)CC3)CC1)CO2 [ER-P-91, N-((S)-2,6-dioxopiperidin-3-yl)-1'-(((1S,4R)-4-((1-(4-((1R,2S)-6-hydroxy-2-phenyl-1,2,3,4-tetrahydronaphthalen-1-yl)phenyl)piperidin-4-yl)oxy)cyclohexyl)methyl)-6-methoxy-2H-spiro[benzofuran-3,4'-piperidine]-5-carboxamide] | 150 | 7940 | – | –
4 | CN(CC(=O)N1CC2(CCC3(CC2)COc2c3ccc3c2CN(C2CCC(=O)NC2=O)C3=O)C1)C1CCC2(CC1)CN(c1ccc([C@@H]3c4ccc(O)cc4CC[C@@H]3c3ccccc3)cc1)C2 (stereo partly drawn) [ER-P-72, 3-(1-(N-(2-(4-((1R,2S)-6-hydroxy-2-phenyl-1,2,3,4-tetrahydronaphthalen-1-yl)phenyl)-2-azaspiro[3.5]nonan-7-yl)-N-methylglycyl)-6"-oxo-6",8"-dihydro-2"H,7"H-dipyridole[azetidine-3,1'-cyclohexane-4',3"-furo[2,3-e]isoindol]-7"-yl)piperidine-2,6-dione] | 1.34 | 14300 | – | –
5 | Cn1c(=O)n(C2CCC(=O)NC2=O)c2ccc3c(c21)OCC31CCN(C2CCN(C3CCN(c4ccc([C@@H]5c6ccc(O)cc6CC[C@@H]5c5ccccc5)cc4)CC3)CC2)CC1 (some centres unmarked) | 1.71 | 11.7 | – | –
6 | Cn1c(=O)n(C2CCC(=O)NC2=O)c2cc3c(cc21)OC1(CC3)CCN(CC2CC(OC3CCN(c4ccc([C@@H]5c6ccc(O)cc6CC[C@@H]5c5ccccc5)cc4)CC3)C2)CC1 (stereo partly drawn) [ER-P-81, 3-(1'-(((1S,3s)-3-((1-(4-((1R,2S)-6-hydroxy-2-phenyl-1,2,3,4-tetrahydronaphthalen-1-yl)phenyl)piperidin-4-yl)oxy)cyclobutyl)methyl)-3-methyl-2-oxo-2,3,7,8-tetrahydro-1H-spiro[chromeno[6,7-d]imidazole-6,4'-piperidin]-1-yl)piperidine-2,6-dione] | – | – | 2.57 | 1.6
7 | N-((S)-2,6-dioxopiperidin-3-yl)-6'-fluoro-1-(((1 S,4R)-4-((1-(4-((1R,2S)-6-hydroxy-2-phenyl-1,2,3,4-tetrahydronaphthalen-1-yl)phenyl)piperidin-4-yl)oxy)cyclohexyl)methy l)spiro[azetidine-3,2'-chromane]-7'-carboxamide [ER-P-85] | – | – | 70.9 | 956
8 | CN(CC(=O)N1CCC2(CC1)COc1c2ccc2c1n(C)c(=O)n2C1CCC(=O)NC1=O)CC1CCN(c2ccc([C@@H]3c4ccc(O)cc4CC[C@@H]3c3ccccc3)cc2)CC1 (stereo partly drawn) [ER-P-75, 3-(1'-(N-((1-(4-((1R,2S)-6-hydroxy-2-phenyl-1,2,3,4-tetrahydronaphthalen-1-yl)phenyl)piperidin-4-yl)methyl)-N-methylglycyl)-1-methyl-2-oxo-1,2-dihydro-3H,7H-spiro[benzofuro[6,7-d]imidazole-6,4'-piperidin]-3-yl)piperidine-2,6-dione] | 1.16 | 3000 | – | –
9 | O=C1CCC(N2Cc3c(ccc4c3OCC43CCC4(CC3)CN(CC3CCC(OC5CCN(c6ccc([C@@H]7c8ccc(O)cc8CC[C@@H]7c7ccccc7)cc6)CC5)CC3)C4)C2=O)C(=O)N1 (stereo partly drawn) [ER-P-78, 3-(1-(((1S,4S)-4-((1-(4-((1R,2S)-6-hydroxy-2-phenyl-1,2,3,4-tetrahydronaphthalen-1-yl)phenyl)piperidin-4-yl)oxy)cyclohexyl)methyl)-6"-oxo-6'',8''-dihydro-2"H,7"H-dipyrine[azetidine-3,1'-cyclohexane-4',3"-furo[2,3-e]isoindol]-7"-yl)piperidine-2,6-dione] | – | – | 5.8 | 737
10 | O=C1CCC(NC(=O)c2cc3c(cc2F)OC2(CC3)CCN(CC3CCC(OC4CCN(c5ccc(C6c7ccc(O)cc7CCC6c6ccccc6)cc5)CC4)CC3)CC2)C(=O)N1 [ER-P-89, N-((S)-2,6-dioxopiperidin-3-yl)-7-fluoro-1'-(((1S,4s)-4-((1-(4-((1R,2S)-6-hydroxy-2-phenyl-1,2,3,4-tetrahydronaphthalen-1-yl)phenyl)piperidin-4-yl)oxy)cyclohexyl)methyl)spiro[chromane-2,4'-piperidine]-6-carboxamide] | 104 | 2740 | – | –
11 | O=C1CC[C@H](NC(=O)c2cc3c(cc2F)OCC32CCN(CC3CCC(OC4CCN(c5ccc([C@@H]6c7ccc(O)cc7CC[C@@H]6c6ccccc6)cc5)CC4)CC3)CC2)C(=O)N1 (stereo partly drawn) [ER-P-83, N-((S)-2,6-dioxopiperidin-3-yl)-6-fluoro-1'-(((1S,4R)-4-((1-(4-((1R,2S)-6-hydroxy-2-phenyl-1,2,3,4-tetrahydronaphthalen-1-yl)phenyl)piperidin-4-yl)oxy)cyclohexyl)methyl)-2H-spiro[benzofuran-3,4'-piperidine]-5-carboxamide] | – | – | 138 | 4330
12 | Cn1c(=O)n(C2CCC(=O)NC2=O)c2ccc3c(c21)C1(CCN(C2CCN(C(=O)C4CCN(c5ccc([C@@H]6c7ccc(O)cc7CC[C@@H]6c6ccccc6)cc5)CC4)CC2)CC1)CO3 (stereo partly drawn) [ER-P-77, 3-(1'-(1-(4-(((1R,2S)-6-hydroxy-2-phenyl-1,2,3,4-tetrahydronaphthalen-1-yl)phenyl)piperidine-4-carbonyl)piperidin-4-yl)-1-methyl-2-oxo-1,2-dihydro-3H,7H-spiro[benzofuro[4,5-d]imidazole-8,4'-piperidin]-3-yl)piperidine-2,6-dione] | 1.87 | 84.7 | – | –
13 | O=C1CCC(NC(=O)c2cc3c(cc2F)C2(CCN(CC4CCC(OC5CCN(c6ccc(C7c8ccc(O)cc8CCC7c7ccccc7)cc6)CC5)CC4)CC2)CO3)C(=O)N1 [ER-P-87, N-((S)-2,6-dioxopiperidin-3-yl)-5-fluoro-1'-(((1S,4R)-4-((1-(4-((1R,2S)-6-hydroxy-2-phenyl-1,2,3,4-tetrahydronaphthalen-1-yl)phenyl)piperidin-4-yl)oxy)cyclohexyl)methyl)-2H-spiro[benzofuran-3,4'-piperidine]-6-carboxamide] | 53 | 4000 | – | –
